Measured values taken from patent publication US11753446B2, “Beta-hairpin peptidomimetics” (POLYPHOR AG, priority 2014, dated 2023).
Where a SMILES comes first, the peptide text is derived from it. Bridges are numbered along the chain shown (N, C = ends). [ ]: non-standard residue; d: D form. dPen = CC(C)(S)[C@@H](N)C(=O)O; Chg = N[C@H](C(=O)O)C1CCCCC1; Tle = CC(C)(C)[C@H](N)C(=O)O; dDab = NCC[C@@H](N)C(=O)O; NMeA = CN[C@@H](C)C(=O)O; Orn = NCCC[C@H](N)C(=O)O; Dab = NCC[C@H](N)C(=O)O; Dap = NC[C@H](N)C(=O)O

Experiments:
[1] = system: human red blood cells (hRBC); assay: Hemolysis: hemolytic activity at 100 μg/mL, 1 h at 37° C.; conditions: red cells of human, 1 h, 100
Method in brief: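 Peptides at 100 μg/mL incubated with washed 20% (v/v) human erythrocytes (~0.9×10^9 cells/mL) for 1 h at 37 °C with shaking. Released hemoglobin read at OD 540 nm in supernatant; 0% and 100% lysis from PBS/0.001% acetic acid and 2.5% Triton X-100.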

[2] = system: Acinetobacter baumannii DSM 30008; type: cell-based; conditions: DSM 30008
Method in brief: (§1)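 Peptide MICs were determined by NCCLS broth microdilution in cation-adjusted Mueller-Hinton II broth. Inoculum was about 10^6 CFU/mL, matched to 0.5 McFarland, with peptides in two-fold serial dilutions. The broth contained Polysorbate 80 at 0.002% final concentration.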

[3] = system: Klebsiella pneumoniae ATCC 13883; type: cell-based; conditions: ATCC 13883
Method in brief: as §1

[4] = system: Escherichia coli ATCC 25922; type: cell-based; conditions: ATCC 25922
Method in brief: as §1

Structure (SMILES)	Hemolysis at 100 μg/mL [1] [%]	Acinetobacter baumannii DSM 30008 MIC [2] [mg/L]	Klebsiella pneumoniae ATCC 13883 MIC [3] [mg/L]	Escherichia coli ATCC 25922 MIC [4] [mg/L]
CC(C)[C@@H]1NC(=O)[C@H](C)N(C)C(=O)[C@H]2CCCN2C(=O)[C@H](CO)NC(=O)[C@H](C)NC(=O)[C@H](C(C)(C)C)NC(=O)[C@H](CCN)NC(=O)[C@H](Cc2c[nH]c3ccccc23)NC(=O)[C@H](CCN)NC(=O)[C@@H](CCN)NC(=O)[C@H](CN)NC(=O)[C@H](CCN)NC(=O)[C@H](Cc2ccc(O)cc2)NC(=O)[C@H](CO)NC1=O [Example 44, cyclo(-Val-Ser-Tyr-Dab-Dap-^DDab-Dab-Trp-Dab-tBuGly-Ala-Ser-^DPro-NMeAla-)] (cyclo(AS[dP][NMeA]VSY[Dab][Dap][dDab][Dab]W[Dab][Tle]))	1	2	0.5	1
CC(C)C[C@@H]1NC(=O)[C@H](CCCNC(=N)N)NC(=O)[C@@H](CCN)NC(=O)[C@H](C(C)C)NC(=O)[C@@H]2CSSC[C@H](NC1=O)C(=O)N[C@@H](Cc1ccc(O)cc1)C(=O)N[C@@H](C)C(=O)N[C@@H](CCCN)C(=O)N[C@H](CCN)C(=O)N[C@@H](CCN)C(=O)N[C@@H](Cc1ccccc1)C(=O)N[C@@H](C)C(=O)N[C@@H](Cc1ccc(O)cc1)C(=O)N2 [Example 19, cyclo(-Leu-Cys-Tyr-Ala-Orn-^DDab-Dab-Phe-Ala-Tyr-Cys-Val-^DDab-Arg-)] (HELM PEPTIDE1{A.[Orn].[NCC[C@@H](N[*:1])C(=O)[*:2]].[Dab].F.A.Y.C.V.[NCC[C@@H](N[*:1])C(=O)[*:2]].R.L.C.Y}$PEPTIDE1,PEPTIDE1,8:R3-13:R3|PEPTIDE1,PEPTIDE1,1:R1-14:R2$$$V2.0)	1	1	1	0.5
CC(C)C[C@@H]1NC(=O)[C@@H]2CCCN2C(=O)[C@H]2CCCN2C(=O)[C@H](CO)NC(=O)[C@@H]2NC(=O)[C@H](C3CCCCC3)NC(=O)[C@H](CCN)NC(=O)[C@H](Cc3c[nH]c4ccccc34)NC(=O)[C@H](CCN)NC(=O)[C@@H](CCN)NC(=O)[C@H](CCCN)NC(=O)[C@H](CCN)NC(=O)[C@H](C(C)(C)C)NC(=O)[C@H](NC1=O)C(C)(C)SSC2(C)C [Example 33, cyclo(-Leu-Pen-tBuGly-Dab-Orn-DDab-Dab-Trp-Dab-Chg-Pen-Ser-^DPro-Pro-)] (cyclo(L[dPen][Tle][Dab][Orn][dDab][Dab]W[Dab][Chg][dPen]S[dP]P); disulfide 2-11)	1	1	2	1
CC(C)C[C@@H]1NC(=O)[C@H](CCCNC(=N)N)NC(=O)[C@@H](CCN)NC(=O)[C@H](CC(C)C)NC(=O)[C@@H]2CSSC[C@H](NC1=O)C(=O)N[C@@H](Cc1ccc(O)cc1)C(=O)N[C@@H](CC(N)=O)C(=O)N[C@@H](CCCN)C(=O)N[C@H](CCN)C(=O)N[C@@H](CCN)C(=O)N[C@@H](Cc1c[nH]c3ccccc13)C(=O)N[C@@H](CO)C(=O)N[C@@H](Cc1ccc(O)cc1)C(=O)N2 [Example 63, cyclo(-Leu-Cys-Tyr-Asn-Orn-^DDab-Dab-Trp-Ser-Tyr-Cys-Leu-^DDab-Arg-)] (HELM PEPTIDE1{C.L.[NCC[C@@H](N[*:1])C(=O)[*:2]].R.L.C.Y.N.[Orn].[NCC[C@@H](N[*:1])C(=O)[*:2]].[Dab].W.S.Y}$PEPTIDE1,PEPTIDE1,1:R3-6:R3|PEPTIDE1,PEPTIDE1,1:R1-14:R2$$$V2.0)	3	0.625	0.75	1
CC(C)[C@@H]1NC(=O)[C@@H]2CCCN2C(=O)[C@H](C)N(C)C(=O)[C@H](CO)NC(=O)[C@@H]2CSSC[C@H](NC1=O)C(=O)N[C@@H](Cc1ccc(O)cc1)C(=O)N[C@@H](CCN)C(=O)N[C@@H](CN)C(=O)N[C@H](CCN)C(=O)N[C@@H](CCN)C(=O)N[C@@H](Cc1c[nH]c3ccccc13)C(=O)N[C@@H](CCN)C(=O)N[C@@H](C(C)(C)C)C(=O)N2 [Example 9, cyclo(-Val-Cys-Tyr-Dab-Dap-^DDab-Dab-Trp-Dab-tBuGly-Cys-Ser-NMeAla-Pro-] (cyclo(CS[NMeA]PVCY[Dab][Dap][dDab][Dab]W[Dab][Tle]); disulfide 1-6)	2	1	0.5	0.5
CC(C)C[C@@H]1NC(=O)[C@H](CCCNC(=N)N)NC(=O)[C@H]2CCCN2C(=O)[C@H](C(C)C)NC(=O)[C@H]([C@@H](C)O)NC(=O)[C@H](C(C)C)NC(=O)[C@@H]2CSSC[C@H](NC(=O)[C@H](Cc3ccc(O)cc3)NC(=O)[C@H]([C@@H](C)O)NC1=O)C(=O)N[C@@H](CCN)C(=O)N[C@H](CCN)C(=O)N[C@@H](CCN)C(=O)N[C@@H](Cc1c[nH]c3ccccc13)C(=O)N2 [Example 36, cyclo(-Leu-Thr-Tyr-Cys-Dab-^DDab-Dab-Trp-Cys-Val-Thr-Val-^DPro-Arg-)] (HELM PEPTIDE1{C.[Dab].[NCC[C@@H](N[*:1])C(=O)[*:2]].[Dab].W.C.V.T.V.[dP].R.L.T.Y}$PEPTIDE1,PEPTIDE1,1:R3-6:R3|PEPTIDE1,PEPTIDE1,1:R1-14:R2$$$V2.0)	2	2	2	4
CC(C)C[C@@H]1NC(=O)[C@H](CN)NC(=O)[C@@H](CCN)NC(=O)[C@H](C(C)C)NC(=O)[C@@H]2CSSC[C@H](NC1=O)C(=O)N[C@@H](Cc1ccc(O)cc1)C(=O)N[C@@H](CC(N)=O)C(=O)N[C@@H](CCCN)C(=O)N[C@H](CCN)C(=O)N[C@@H](CCN)C(=O)N[C@@H](Cc1c[nH]c3ccccc13)C(=O)N[C@@H](CO)C(=O)N[C@@H](Cc1ccc(O)cc1)C(=O)N2 [Example 68, cyclo(-Leu-Cys-Tyr-Asn-Orn-^DDab-Dab-Trp-Ser-Tyr-Cys-Val-^DDab-Dap-)] (cyclo(CV[dDab][Dap]LCYN[Orn][dDab][Dab]WSY); disulfide 1-6)	1	1.25	0.5	0.75
CC(C)C[C@@H]1NC(=O)[C@H](CCN)NC(=O)[C@@H](CCN)NC(=O)[C@H](C(C)C)NC(=O)[C@@H]2CSSC[C@H](NC1=O)C(=O)N[C@@H](Cc1ccc(O)cc1)C(=O)N[C@@H](CC(N)=O)C(=O)N[C@@H](CCCN)C(=O)N[C@H](CCN)C(=O)N[C@@H](CCN)C(=O)N[C@@H](Cc1c[nH]c3ccccc13)C(=O)N[C@@H](CO)C(=O)N[C@@H](Cc1ccc(O)cc1)C(=O)N2 [Example 51, cyclo(-Leu-Cys-Tyr-Asn-Orn-^DDab-Dab-Trp-Ser-Tyr-Cys-Val-^DDab-Dab-)] (HELM PEPTIDE1{C.V.[NCC[C@@H](N[*:1])C(=O)[*:2]].[Dab].L.C.Y.N.[Orn].[NCC[C@@H](N[*:1])C(=O)[*:2]].[Dab].W.S.Y}$PEPTIDE1,PEPTIDE1,1:R3-6:R3|PEPTIDE1,PEPTIDE1,1:R1-14:R2$$$V2.0)	2	0.75	0.75	0.75
CC(C)C[C@@H]1NC(=O)[C@H](CCN)NC(=O)[C@@H](CCN)NC(=O)[C@H](C(C)C)NC(=O)[C@@H]2CSSC[C@H](NC1=O)C(=O)N[C@@H](Cc1ccc(O)cc1)C(=O)N[C@@H](CC(N)=O)C(=O)N[C@@H](CCCN)C(=O)N[C@H](CCN)C(=O)N[C@@H](CCN)C(=O)N[C@@H](Cc1c[nH]c3ccccc13)C(=O)N[C@@H](CC(N)=O)C(=O)N[C@@H](Cc1ccc(O)cc1)C(=O)N2 [Example 54, cyclo(-Leu-Cys-Tyr-Asn-Orn-^DDab-Dab-Trp-Asn-Tyr-Cys-Val-^DDab-Dab-)] (HELM PEPTIDE1{C.V.[NCC[C@@H](N[*:1])C(=O)[*:2]].[Dab].L.C.Y.N.[Orn].[NCC[C@@H](N[*:1])C(=O)[*:2]].[Dab].W.N.Y}$PEPTIDE1,PEPTIDE1,1:R3-6:R3|PEPTIDE1,PEPTIDE1,1:R1-14:R2$$$V2.0)	3	1.25	1	0.75
CC[C@H](C)[C@@H]1NC(=O)[C@H](Cc2ccc(O)cc2)NC(=O)[C@@H](C)NC(=O)[C@H](CO)NC(=O)[C@@H]2CSSC[C@H](NC1=O)C(=O)N[C@@H](Cc1ccc(O)cc1)C(=O)N[C@@H](CCN)C(=O)N[C@@H](CCCN)C(=O)N[C@H](CCN)C(=O)N[C@@H](CCN)C(=O)N[C@@H](Cc1c[nH]c3ccccc13)C(=O)N[C@@H](CCN)C(=O)N[C@@H](C(C)(C)C)C(=O)N2 [Example 16, cyclo(-Ile-Cys-Tyr-Dab-Orn-^DDab-Dab-Trp-Dab-tBuGly-Cys-Ser-^DAla-Tyr-)] (HELM PEPTIDE1{C.S.[dA].Y.I.C.Y.[Dab].[Orn].[NCC[C@@H](N[*:1])C(=O)[*:2]].[Dab].W.[Dab].[CC(C)(C)[C@H](N[*:1])C(=O)[*:2]]}$PEPTIDE1,PEPTIDE1,1:R3-6:R3|PEPTIDE1,PEPTIDE1,1:R1-14:R2$$$V2.0)	1	1	0.5	0.5
